Test results reported in US8114393B2, “Methods and compositions for phosphate binding” (Wisconsin Alumni Research Foundation, priority 2005, dated 2012).

Key:
[1] = test system: Intestinal Phosphate Absorption; experiment: Intestinal phosphate absorption: oral 33P dose after gavage of phosphate binder; format: in vivo, rats; conditions: for amount of 33P remaining in the digestive tract compared with water (FIG. 3A) / serum 33P levels compared with water (FIG. 3B): 10 mg calcium, 14.4 mg Renagel or novel binder (Table 1); for binding / absorption of an oral 33P dose (summary): administered orally in rats; for 33P remaining in the intestine compared to Renagel, dose response study (FIG. 4A) / serum 33P levels compared to Renagel, dose response study (FIG. 4B): two highest levels of DAB-8 and DAB-16, highest level of DAB-64, vs 14.4 mg Renagel
Method: (§1) Animals. Male Sprague-Dawley rats (Harlan Sprague-Dawley, Madison, Wis.) weighing approximately 120 grams were used in all experiments.
In experiments to measure ^33P absorption, the rats were fed a laboratory chow diet (Lab Diet 5012, Richmond, Ind.) containing 1% calcium and 0.7% phosphorus ad libitum for less than one week prior to the experiment.
Intestinal Phosphate Absorption. Following an overnight fast, rats were administered 0.5 mL water or an oral phosphate binder dissolved in water via gastric gavage. A second dose of 0.5 mL containing 3 μCi ^33P (as H3PO4, specific activity 155.8 Ci/mg, New England Nuclear/Perkin Elmer, Boston, Mass.) in a 10, 50, or 100 mM KH2PO4 buffer at pH 7.4 was immediately administered via gastric gavage. Rats were killed by CO2 asphyxiation immediately or 60 minutes after the oral dose. The rats killed immediately (labeled “0 min control” in figures) were used to determine if the oral ^33P dose was properly administered and completely recovered.
Blood was collected via heart puncture and centrifuged at 1500×g for 15 minutes at 22° C. to yield serum. A suture was tied to the cranial end of the esophagus to contain liquid inside the stomach. The entire digestive tract was then removed and allowed to dissolve for several days in concentrated HNO3 (approximately 1 mL HNO3 per gram tissue). The exact volume of the dissolved digestive tract was determined by diluting the dissolved tissues to equal volumes with water.
The amount of radioactivity in total body serum and total volume of dissolved tissue was determined following liquid scintillation counting of 50 μL aliquots in triplicate (Tri-Carb Liquid Scintillation Analyzer, Perkin-Elmer/Packard, Boston, Mass.). Total body serum was estimated to be 40 mL serum/kg body weight. (Hawk T et al., 1999, Formulary for laboratory animals, Ames, Iowa: Iowa State University Press.)
(§2) Statistical analysis. Data are presented as means±standard error of the means (SEM). Treatment groups were compared by a fully factorial analysis of variance (ANOVA) and means were subjected to Tukey, Scheffe, and Fisher's Least-Significant-Difference (LSD) tests (Systat 5.2.1, Systat Software, Inc., Point Richmond, Calif.). Differences were considered significant if at least two of the tests detected significance with a p-value <0.05, unless specified otherwise.
Materials and Methods. The relevant materials and methods were the same as set forth above except that instead of using “0.5 mL of water or 39.5 mg calcium acetate, 14.4 mg RENAGEL, or up to 132.8 mg of test dendrimer,” the following was used “0.5 mL of water, 14.4 mg RENAGEL or 10 mg DAB-8 as the hydroacetate or hydrocitrate form dissolved in water.”

[2] = test system: Intestinal Phosphate Absorption; experiment: Fecal calcium and phosphorus measurements, binder in purified diet; format: in vivo, rats; conditions: for mg P per gram feces: 48 h fecal collection, mean ± SEM, control 3.79 ± 0.18; for fecal phosphorus levels versus control diet or diet with 0.15% Renagel / increase in fecal phosphorus versus the increase from excess calcium or an equivalent amount of Renagel: 0.15% of diet; for fecal phosphorus levels versus control diet or diet with 0.15% Renagel: DAB-8 and DAB-16 significant by Fisher's LSD test only; for increase in fecal phosphorus versus the increase from excess calcium or an equivalent amount of Renagel: Fisher's LSD test only
Source text: as §1
In experiments to measure fecal calcium and phosphorus levels, rats were fed purified diet described previously for 9 days. (Suda T et al., Biological activity of 25-hydroxyergocalciferol in rats, J Nutr 1970, 100:1049-1052). This diet was mixed with egg white protein (Harlan Teklad, Madison, Wis.) and contained 0.20% inorganic phosphorus and 0.47% calcium. The purified diet was supplemented with 100 μL soybean oil (Wesson oil, ConAgra Foods, Irvine, Calif.) containing 500 μg α-tocopherol, 60 μg menadione, 40 μg β-carotene, and 1.875 μg cholecalciferol three times each week.
Fecal calcium and phosphorus measurements. Rats were fed the purified diet described above or the same diet with 1.2% calcium, 0.15% Renagel®, or 0.15% DAB-4, DAB-8, or DAB-16 for 7 days. Rats were then moved to metabolic cages and fecal matter was collected for 48 hours. Fecal samples were frozen, lyophilized, and heated to over 600° C. overnight in a muffle oven. Remaining ash was then dissolved overnight in 25 mL 6 N HCl. The calcium concentration of the acid was determined by flame atomic absorption spectroscopy (Model 3110, Perkin Elmer, Norwalk, Conn.) using an aliquot of the dissolved ash diluted 1:40 with 1 g/L LaCl3. The phosphorus concentration of an aliquot of the dissolved ash was determined by a colorimetric assay described previously. (Itaya K et al., A new micromethod for the colorimetric determination of inorganic phosphate, Clin Chim Acta 1966, 14:361-366).
as §2

rats = experiment: Oral tolerability of DAB dendrimers fed in the diet; format: in vivo; conditions: as hydrochlorides; for tolerability in rats: 0.15% of the diet; for tolerability in rats, observation: 0.3% or 0.6% of the diet, after 5 days (data not shown)
Source text: Unfortunately, little is known regarding the toxicity of DAB dendrimers when administered orally. Previous research has shown DAB dendrimers to be cytotoxic in vitro (Duncan R et al., Dendrimer biocompatibility and toxicity, Adv Drug Deliv Rev 2005, 57:2215-2237) and when administered intravenously, the DAB dendrimers are lethal. (Schatzlein A G et al., Preferential liver gene expression with polypropylenimine dendrimers, J Control Release 2005, 101:247-258). In our experiments, however, the DAB dendrimers were well tolerated by rats when administered orally.

[3] = 14.4 mg Renagel or 10 mg DAB-8 as acetate or citrate, 10 mM KH2PO4, 60 min
[4] = 10 mM KH2PO4, 60 min, listed as DAB-16-Cl

Row | Molecule | amount of 33P remaining in the digestive tract compared with water (FIG. 3A) ([1]; 10 mM KH2PO4, 60 min) | serum 33P levels compared with water (FIG. 3B) ([1]; 10 mM KH2PO4, 60 min) | mg P per gram feces ([2]; 0.15% of diet for 7 days) | fecal phosphorus levels versus control diet or diet with 0.15% Renagel [2] | tolerability in rats (rats) | tolerability in rats, observation (rats) | 33P remaining in the intestine compared to Renagel, dose response study (FIG. 4A) [1] | serum 33P levels compared to Renagel, dose response study (FIG. 4B) [1] | further results
1 | Cl.Cl.Cl.Cl.Cl.Cl.NCCCN(CCCN)CCCCN(CCCN)CCCN [DAB-4, polypropylenimine tetraamine Dendrimer perhydrochloride] | significantly increased | significantly reduced | 4.30 ± 0.13 mg P per gram feces | increased, though not significantly | tolerated | only softened stool was observed | – | – | –
2 | Cl.Cl.N[C@@H]1CO[C@@H]2[C@H]1OC[C@H]2N [FC, 1,4:3,6-Dianhydro-2,5-diamino-2,5-dideoxy-D-iditol dihydrochloride] | did not affect | slight, but significant, decrease | – | – | – | – | – | – | binding / absorption of an oral 33P dose (summary) [1]: does not appear to bind
3 | Cl.Cl.Cl.Cl.NC[C@@H](N)[C@@H](N)CN [KB-54, erythro-1,2,3,4-tetraminobutane tetrahydrochloride] | significantly increased | significantly reduced | – | – | – | – | – | – | binding / absorption of an oral 33P dose (summary) [1]: reduced the absorption
4 | CC(=O)[O-].CC(=O)[O-].[Ca+2] [calcium, Calcium acetate, reference compound] | significantly increased | significantly reduced | – | – | – | – | – | – | 33P remaining in the intestine after 60 minutes compared with water (FIG. 2A) ([1]; 20 mg calcium (as calcium acetate) or 14.4 mg Renagel by gavage, 33P in 10, 50 or 100 mM KH2PO4, fasted rats): significantly more; 33P bound in the intestine compared with 14.4 mg Renagel (FIG. 2A) ([1]; 20 mg calcium, difference significant in 10 or 100 mM phosphate, 60 min): bound more ^33P in the intestine; serum 33P levels compared with water (FIG. 2B) ([1]; calcium (printed 10 mg) or 14.4 mg Renagel, 10, 50 or 100 mM KH2PO4, 60 min): significant decrease; mg P per gram feces ([2]; 1.20% Ca diet for 7 days): 4.39 ± 0.23 mg P per gram feces; fecal phosphorus versus control diet ([2]; 1.20% calcium diet): increased, though not significantly
5 | DAB-Am-8, Polypropylenimine octaamine Dendrimer citrate (Generation 2.0) [DAB-8 as citrate] | – | – | – | – | – | – | – | – | 33P in the serum compared with vehicle pretreatment (FIG. 26) [1, 3]: significantly less; 33P retained in the gut compared with vehicle pretreatment (FIG. 25) [1, 3]: significantly more
6 | Polypropylenimine hexadecaamine Dendrimer perhydrochloride [DAB-16] | significantly increased | significantly reduced | 4.78 ± 0.30 mg P per gram feces | significantly increased | tolerated | only softened stool was observed | significantly increased | significantly reduced | 33P retained in the digestive tract versus DAB-4 at an equivalent amount of free amino groups (FIG. 5A) ([1]; 10 mM KH2PO4, 60 min): bound significantly more; 33P retained in the digestive tract versus DAB-8 at equimolar amounts (FIG. 5A) ([1]; 10 mM KH2PO4, 60 min): retained significantly more; amount of 33P remaining in the digestive tract compared to a comparable amount of Renagel (FIG. 3A) ([1]; 10 mM KH2PO4, 60 min): bound significantly more; serum 33P levels compared to a comparable amount of Renagel (FIG. 3B) ([1]; 10 mM KH2PO4, 60 min): significantly reduced; 33P retained in the digestive tract versus DAB-8 at equimolar amounts (FIG. 5A) [1, 4]: significantly more; amount of 33P remaining in the digestive tract compared to a comparable amount of Renagel (FIG. 3A) [1, 4]: significantly increased; serum 33P levels compared with water, mechanism study (FIG. 5B) ([1]; 13.9 mg, the only level of binder with significant effect): significantly reduce; increase in fecal phosphorus versus the increase from excess calcium or an equivalent amount of Renagel [2]: significantly higher
7 | Polypropylenimine tetrahexacontaamine Dendrimer perhydrochloride [DAB-64] | significantly increased | significantly reduced | – | – | – | – | significantly increased | significantly reduced | –
8 | polypropylenimine octaamine Dendrimer perhydrochloride [DAB-8] | significantly increased | significantly reduced | 4.71 ± 0.53 mg P per gram feces | significantly increased | tolerated | only softened stool was observed | significantly increased | significantly reduced | amount of 33P remaining in the digestive tract compared to a comparable amount of Renagel (FIG. 3A) ([1]; 10 mM KH2PO4, 60 min): bound significantly more; serum 33P levels compared to a comparable amount of Renagel (FIG. 3B) ([1]; 10 mM KH2PO4, 60 min): significantly reduced; amount of 33P remaining in the digestive tract compared to a comparable amount of Renagel (FIG. 3A) ([1]; 10 mM KH2PO4, 60 min, listed as DAB-8-Cl): significantly increased; increase in fecal phosphorus versus the increase from excess calcium or an equivalent amount of Renagel [2]: significantly higher
